Measured values taken from US20090036380A1, “Composition And Method For Brain Tumor Therapy” (Yeda Research and Development Co., Ltd., priority 2006, published 2009).
Entries after “also recorded” stand apart in the source; their conditions may differ.

Experiments:
PC12 cells = assay: Viability / death of PC12 cells after transfection with Karet constructs (Live/dead kit, FACS, cell counting, Hoechst); type: cell-based, rat; details: for cell viability / death versus control vector: PC12, 18 hours after transfection, dead/live kit and FACS
Method: FIG. 5a is a bar-graph of FACS data depicting 50 percent death of PC12 cells overexpressing Karet. Shown is a FACS analysis of PC12 viability 15 hours after transfection with Ha-Karet or control vector using Live/dead kit (Molecular probes), T-test=0.003.
FIG. 5b is a series of fluorescence photomicrographs depicting death of PC12 cells caused by Karet overexpression. Shown is a live/dead kit analysis of PC12 cells overexpressing Ha-Karet (left panels) versus control vector-transfected cells (right panels). Live cell are stained in green, dead cells are stained in red. Upper panels each show red fluorescence only (left picture) and green fluorescence only (right picture) pairs, and lower panels each show combined red and green fluorescence (left picture) and light microscopy images (right picture) pairs.
FIG. 5d is a pair of Hoechst stain histology photomicrographs depicting condensation of chromatin indicating apoptosis in PC12 cells expressing Karet, but not in control cells transfected with vector only.
FIG. 5e is a histogram depicting that Karet expression induces cell death of TrkA expressing cells, which is increased by NGF treatment and is decreased by necdin. PC12 or PC12 necdin stable cell line were electroporated with Karet or GFP control and incubated with or without 50 ng/ml NGF for 12 hours. Cells were counted and result presented as percent of control.
PC12 cells were transfected with Ha Karet, PTB, non PTB and their combinations. Cells were analyzed by FACS 18 hours after transfection using the dead/live kit. N=3; * p<0.05; **p<0.001;
The lower panel is a histogram depicting that Karet-mediated cell death correlates well with expression levels of the Karet protein. PC12 Tet-on cells were electroporated with Ha-Karet cloned under inducible promoter and incubated for 24 hours with different concentrations of doxycycline. Cells transfected with Karet but not treated with doxycycline served as control. Cells were counted and the results were determined as percent of control. The upper panel is a control Western blot depicting increased Karet expression with increased concentrations of doxycycline. Cells transfected with Karet and treated with doxycycline were lysed in NP-40 buffer and subjected to SDS-PAGE analysis. Similar amount of protein was loaded and blotted for Karet expression with Ha antibody. Proteins levels were checked with anti-tubulin antibody.
FIG. 18a—PC12 were transfected with Ha Karet, Karet F217V, PTB F217V or a control vector (pcDNA3) and 18 hours after transfection the effect of Karet or Karet mutants on cell death was determined using the dead/live kit and FACS analysis. Results are presented in percentages as compared to cells transfected with the control vector. N=3 **P<0.001. […] FIG. 18b—Cells were lysed 24 hours after transfection, fractionated on SDS-PAGE and immunoblot for anti Ha (Covance).
FIG. 19 is a histogram depicting FACS analysis of Karet-induced death. PC12 cells were co-transfected with Karet and the PTB, non-PTB or the F217V mutant at different ratios (1:1, 1:2, 1:3) and 18 hours after transfection the cells were analyzed by FACS using the dead/live kit.
Viability of cells was evaluated using the Live/dead viability/cytotoxicity kit (Cat. No. L-3224), Molecular Probes, Inc., Eugene, Oreg., USA, according to manufacturer's instructions.

TrkA = assay: Co-immunoprecipitation of HA-Karet constructs with TrkA; type: binding; details: co-transfected Hek or NNR5 cells, anti-HA IP
Method: FIG. 3c is a co-immunoprecipitation assay depicting co-immunoprecipitation of HA-Karet with TrkA in COS cells. Karet tagged with the HA epitope was immunoprecipitated with anti-HA antibody and the blot was incubated with anti-TrkA (RTA). In control experiments the HA-Karet was substituted with vector.
FIG. 3d is a co-immunoprecipitation assay depicting interaction of Karet and TrkA in NNR5 cells transfected with TrkA.
FIG. 3e is a co-immunoprecipitation assay depicting co-immunoprecipitation of HA-Karet with TricA in co-transfected NNR5 cells immunoprecipitated with anti-HA (Roche) and Western blot with the anti-TrkA antibody C14 (Santa Cruz).
FIGS. 4a-c are co-immunoprecipitation assay results depicting the influence of NGF treatment on TrkA-Karet interaction. FIG. 4a depicts that TrkA-Karet interaction occurred prior to NGF treatment and was enhanced after ligand stimulation for 10 minutes (10 m) or 2 hours (2 h). HA-Karet was electroporated into cell line PC12, and the cells were treated with 50 ng/ml NGF for the indicated time periods in order to activate p75 and TrkA. Karet tagged with the HA epitope was immunoprecipitated with anti-HA antibody, the precipitated proteins were separated electrophoretically, and gel blots were incubated with anti-TrkA antibody (RTA). FIG. 4b depicts that necdin seems to compete with TrkA for binding to Karet. myc-Karet was electroporated into necdin stable cell line, and the cells were treated with 50 ng/ml NGF for the indicated time periods. Karet tagged with the myc epitope was immunoprecipitated with anti-myc antibody, the precipitated proteins were separated electrophoretically, and gel blots were incubated with anti-TrkA antibody (RTA). […] A blot from the same experiment was stripped and re-incubated with anti-necdin antibody. The arrow indicates the glycosylated form of TrkA (molecular weight of 140 kDa).
FIG. 7b is an immunoprecipitation assay depicting that the PTB domain-containing Karet(1-228) mutant, but not Karet(228-453) co-immunoprecipitates with TrkA in NNR5 cells. Truncation mutants tagged with the HA epitope were immunoprecipitated with anti-HA antibody, the precipitated proteins were separated electrophoretically, and gel blots were incubated with anti-TrkA (RTA).
FIGS. 24a-d depict co IP of Ha Karet with TrkA, TrkB, TrkC, p75 from co-transfected Hek cells. Cells were co-transfected with Ha Karet or control vector and TrkA, TrkB, TrkC or p75. Cells were lysed with NP40, the HA-beads (beads conjugated to anti-HA antibody) were blocked with Hek lysate, and elution was done for 30 minutes at 37° C. […]

Substance	cell viability / death versus control vector (PC12 cells)	effect on Karet-induced death in competition assay (PC12 cells; PC12 co-transfected with Karet at ratios 1:1, 1:2, 1:3, FACS 18 hours after transfection)	co-immunoprecipitation / interaction with TrkA (TrkA)	cell death versus Karet expression level (PC12 cells; PC12 Tet-on cells, 24 hours, different concentrations of doxycycline)	Hoechst staining (PC12 cells; PC12 cells expressing Karet versus control-transfected cells)
Karet F217V: full-length mouse Karet with phenyl alanine at position 217 point mutated to valine	do not cause death; also recorded: does not induce cell death	reduced Karet-induced death	co-immunoprecipitated	–	–
Karet: full-length mouse Karet protein (SEQ ID NO:1), PTB domain protein, expressed from pcDNA3 with HA tag	significant reduction in the viability	–	co-immunoprecipitated	well correlated with expression levels of the Karet protein	condensed chromatin indicating apoptotic death
